From patent publication US9493448B2, “Cycloalkane derivatives” (Daiichi Sankyo Company, Limited, priority 2012, dated 2016)
Structures can show the parent of a compound that is named as a salt.

target: hNav 1.7 (Homo sapiens (Human), UniProt Q15858); test: Electrophysiological evaluation, automated patch clamp IonWorks Quattro (Population Patch Clamp mode); assay type: cell-based; conditions: HEK293A cells stably expressing hNav 1.7/β1/β2; response to second depolarization pulse, pre-pulse potential set to V1/2; read-out: hNav1.7 IC50
Sequence (Q15858 whole entry): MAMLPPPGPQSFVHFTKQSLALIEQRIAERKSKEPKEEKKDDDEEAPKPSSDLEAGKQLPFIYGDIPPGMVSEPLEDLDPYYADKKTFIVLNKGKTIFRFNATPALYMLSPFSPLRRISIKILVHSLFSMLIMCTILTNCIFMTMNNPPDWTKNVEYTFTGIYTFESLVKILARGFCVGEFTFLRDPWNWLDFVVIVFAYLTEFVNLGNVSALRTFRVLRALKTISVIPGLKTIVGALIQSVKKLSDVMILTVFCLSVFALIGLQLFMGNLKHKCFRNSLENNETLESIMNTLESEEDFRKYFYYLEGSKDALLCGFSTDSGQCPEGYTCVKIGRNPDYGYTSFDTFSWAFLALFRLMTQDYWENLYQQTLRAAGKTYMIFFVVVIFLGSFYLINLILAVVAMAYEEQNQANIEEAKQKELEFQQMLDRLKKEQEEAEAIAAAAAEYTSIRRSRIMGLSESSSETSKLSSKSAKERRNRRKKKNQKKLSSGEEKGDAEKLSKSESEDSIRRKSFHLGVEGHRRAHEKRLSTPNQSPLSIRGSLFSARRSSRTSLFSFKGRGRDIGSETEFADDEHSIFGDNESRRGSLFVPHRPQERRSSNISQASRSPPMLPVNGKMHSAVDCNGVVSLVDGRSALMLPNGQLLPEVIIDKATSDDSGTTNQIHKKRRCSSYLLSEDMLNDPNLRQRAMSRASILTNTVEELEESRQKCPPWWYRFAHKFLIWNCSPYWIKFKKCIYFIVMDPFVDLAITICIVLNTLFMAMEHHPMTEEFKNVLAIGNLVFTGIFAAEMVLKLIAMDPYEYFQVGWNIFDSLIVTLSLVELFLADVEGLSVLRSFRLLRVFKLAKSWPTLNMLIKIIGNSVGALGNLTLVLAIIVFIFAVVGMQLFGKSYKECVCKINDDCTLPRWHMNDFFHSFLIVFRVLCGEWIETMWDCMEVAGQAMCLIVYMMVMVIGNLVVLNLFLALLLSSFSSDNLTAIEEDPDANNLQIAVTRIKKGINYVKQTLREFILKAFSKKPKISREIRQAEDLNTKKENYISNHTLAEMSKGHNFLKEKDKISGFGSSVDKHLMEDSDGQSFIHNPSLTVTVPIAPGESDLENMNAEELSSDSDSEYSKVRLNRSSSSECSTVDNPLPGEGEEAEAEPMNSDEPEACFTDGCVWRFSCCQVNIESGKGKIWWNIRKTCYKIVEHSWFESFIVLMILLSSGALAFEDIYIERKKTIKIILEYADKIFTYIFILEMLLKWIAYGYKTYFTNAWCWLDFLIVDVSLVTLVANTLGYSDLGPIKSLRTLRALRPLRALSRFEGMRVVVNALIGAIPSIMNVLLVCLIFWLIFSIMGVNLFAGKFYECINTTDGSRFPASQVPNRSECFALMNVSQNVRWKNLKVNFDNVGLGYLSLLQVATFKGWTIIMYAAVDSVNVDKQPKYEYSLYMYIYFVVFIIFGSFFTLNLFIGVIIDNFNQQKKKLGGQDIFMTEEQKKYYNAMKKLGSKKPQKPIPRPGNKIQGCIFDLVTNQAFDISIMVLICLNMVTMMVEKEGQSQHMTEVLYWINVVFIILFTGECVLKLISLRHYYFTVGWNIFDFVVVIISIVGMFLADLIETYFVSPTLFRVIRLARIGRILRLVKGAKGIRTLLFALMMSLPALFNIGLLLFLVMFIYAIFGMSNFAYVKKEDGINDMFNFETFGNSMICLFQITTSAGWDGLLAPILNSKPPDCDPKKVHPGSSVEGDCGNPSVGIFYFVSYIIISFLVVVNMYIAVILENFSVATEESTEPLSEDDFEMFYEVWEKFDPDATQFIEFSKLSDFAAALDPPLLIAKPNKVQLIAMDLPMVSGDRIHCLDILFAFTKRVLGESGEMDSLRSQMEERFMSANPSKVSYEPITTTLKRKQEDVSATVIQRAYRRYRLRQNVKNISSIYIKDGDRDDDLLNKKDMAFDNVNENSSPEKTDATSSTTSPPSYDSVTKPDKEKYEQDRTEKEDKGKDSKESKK
Sequence (Q07699 19-218 partner): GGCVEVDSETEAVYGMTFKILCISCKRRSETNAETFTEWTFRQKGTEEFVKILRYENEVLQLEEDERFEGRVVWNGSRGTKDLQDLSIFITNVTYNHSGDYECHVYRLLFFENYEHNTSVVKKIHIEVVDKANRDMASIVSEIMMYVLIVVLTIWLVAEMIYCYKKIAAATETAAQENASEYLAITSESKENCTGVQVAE
Sequence (O60939 30-215 partner): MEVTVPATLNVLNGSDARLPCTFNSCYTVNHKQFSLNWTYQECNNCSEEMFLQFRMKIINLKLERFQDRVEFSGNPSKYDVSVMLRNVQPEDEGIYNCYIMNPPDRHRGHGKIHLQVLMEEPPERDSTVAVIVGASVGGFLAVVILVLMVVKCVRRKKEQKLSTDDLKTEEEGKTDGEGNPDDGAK

Structure (SMILES) | IC50
O=S(=O)(Nc1ncns1)c1cc(F)c(O[C@H]2CCC[C@@H]2c2ccccc2)cc1F (relative stereo) [Example 6, 2,5-Difluoro-4-{[(1S*,2R*)-2-phenylcyclopentyl]oxy}-N-(1,2,4-thiadiazol-5-yl)benzenesulfonamide] | 610 nM
O=S(=O)(Nc1ncns1)c1cc(F)c(O[C@H]2CCCCC[C@@H]2c2ccccc2)cc1F (relative stereo) [Example 7, 2,5-Difluoro-4-{[(1S*,2R*)-2-phenylcycloheptyl]oxy}-N-(1,2,4-thiadiazol-5-yl)benzenesulfonamide] | 450 nM
Cn1nccc1[C@H]1CCCCC[C@@H]1Oc1cc(F)c(S(=O)(=O)Nc2ncns2)cc1F (relative stereo) [Example 9, 2,5-Difluoro-4-{[(1S*,2R*)-2-(1-methyl-1H-pyrazol-5-yl)cycloheptyl]oxy}-N-(1,2,4-thiadiazol-5-yl)benzenesulfonamide] | 14 nM
Cn1nccc1[C@H]1CCCC[C@@H]1Oc1cc(F)c(S(=O)(=O)Nc2cscn2)cc1Cl (relative stereo) [Example 10, 5-Chloro-2-fluoro-4-{[(1S*,2R*)-2-(1-methyl-1H-pyrazol-5-yl)cyclohexyl]oxy}-N-(1,3-thiazol-4-yl)benzenesulfonamide Na salt] | 30 nM
Cn1nccc1[C@H]1CCC[C@@H]1Oc1cc(F)c(S(=O)(=O)Nc2cscn2)cc1Cl (relative stereo) [Example 11, 5-Chloro-2-fluoro-4-{[(1S*,2R*)-2-(1-methyl-1H-pyrazol-5-yl)cyclopentyl]oxy}-N-(1,3-thiazol-4-yl)benzenesulfonamide Na salt] | 10 nM
CCn1nccc1[C@H]1CCCC[C@@H]1Oc1cc(F)c(S(=O)(=O)Nc2cscn2)cc1Cl (relative stereo) [Example 12, 5-Chloro-4-{[(1S*,2R*)-2-(1-ethyl-1H-pyrazol-5-yl)cyclohexyl]oxy}-2-fluoro-N-(1,3-thiazol-4-yl)benzenesulfonamide] | 120 nM
O=S(=O)(Nc1cscn1)c1cc(Cl)c(O[C@H]2CCCC[C@@H]2n2ccnc2)cc1F (relative stereo) [Example 13, 5-chloro-2-fluoro-4-{[(1S*,2S*)-2-(1H-imidazol-1-yl)cyclohexyl]oxy}-N-(1,3-thiazol-4-yl)benzenesulfonamide] | 82 nM
Cn1nccc1[C@H]1CCC[C@@H]1Oc1ccc(S(=O)(=O)Nc2nccs2)cc1F (relative stereo) [Example 16, 3-Fluoro-4-{[(1S*,2R*)-2-(1-methyl-1H-pyrazol-5-yl)cyclopentyl]oxy}-N-(1,3-thiazol-2-yl)benzenesulfonamide] | 230 nM
Cn1nccc1[C@H]1CCC[C@@H]1Oc1ccc(S(=O)(=O)Nc2cc(F)ncn2)cc1F (relative stereo) [Example 17, 3-Fluoro-N-(6-fluoropyrimidin-4-yl)-4-{[(1S*,2R*)-2-(1-methyl-1H-pyrazol-5-yl)cyclopentyl]oxy}benzenesulfonamide] | 510 nM
Cn1nccc1[C@H]1CCC[C@@H]1Oc1ccc(S(=O)(=O)Nc2ccnc(F)n2)cc1F (relative stereo) [Example 18, 3-Fluoro-N-(2-fluoropyrimidin-4-yl)-4-{[(1S*,2R*)-2-(1-methyl-1H-pyrazol-5-yl)cyclopentyl]oxy}benzenesulfonamide] | 170 nM
Cn1nccc1[C@H]1CCC[C@@H]1Oc1cc(Cl)c(S(=O)(=O)Nc2ccncn2)cc1F (relative stereo) [Example 19, 2-Chloro-5-fluoro-4-{[(1S*,2R*)-2-(1-methyl-1H-pyrazol-5-yl)cyclopentyl]oxy}-N-(pyrimidin-4-yl)benzenesulfonamide] | 510 nM
Cn1nccc1[C@H]1CCC[C@@H]1Oc1ccc(S(=O)(=O)Nc2ccncn2)cc1C(F)(F)F (relative stereo) [Example 21, 4-{[(1S*,2R*)-2-(1-Methyl-1H-pyrazol-5-yl)cyclopentyl]oxy}-N-(pyrimidin-4-yl)-3-(trifluoromethyl)benzenesulfonamide] | 250 nM
O=S(=O)(Nc1ccncn1)c1cc(F)c(O[C@H]2CCCC[C@@H]2c2ccn[nH]2)cc1F (relative stereo) [Example 22, 2,5-Difluoro-4-{[(1S*,2R*)-2-(1H-pyrazol-5-yl)cyclohexyl]oxy}-N-(pyrimidin-4-yl)benzenesulfonamide] | 520 nM
Cn1nccc1[C@H]1CCC[C@@H]1Oc1cc(F)c(S(=O)(=O)Nc2ccnc(F)n2)cc1F (relative stereo) [Example 24, 2,5-Difluoro-N-(2-fluoropyrimidin-4-yl)-4-{[(1S*,2R*)-2-(1-methyl-1H-pyrazol-5-yl)cyclopentyl]oxy}benzenesulfonamide] | 23 nM
Cn1nccc1[C@H]1CCC[C@@H]1Oc1ccc(S(=O)(=O)Nc2ccncn2)cc1C#N (relative stereo) [Example 26, 3-Cyano-4-{[(1S*,2R*)-2-(1-methyl-1H-pyrazol-5-yl)cyclopentyl]oxy}-N-(pyrimidin-4-yl)benzenesulfonamide] | 200 nM
Nc1n[nH]cc1[C@H]1CCCC[C@@H]1Oc1cc(F)c(S(=O)(=O)Nc2ccncn2)cc1F (relative stereo) [Example 34, 4-{[(1S*,2R*)-2-(3-Amino-1H-pyrazol-4-yl)cyclohexyl]oxy}-2,5-difluoro-N-(pyrimidin-4-yl)benzenesulfonamide] | 250 nM
Nc1cc([C@H]2CCC[C@@H]2Oc2cc(F)c(S(=O)(=O)Nc3ccncn3)cc2F)ccn1 (relative stereo) [Example 36, 4-{[(1S*,2R*)-2-(2-Aminopyridin-4-yl)cyclopentyl]oxy}-2,5-difluoro-N-(pyrimidin-4-yl)benzenesulfonamide] | 500 nM
O=S(=O)(Nc1ccncn1)c1cc(F)c(O[C@H]2CCCC[C@@H]2c2cccnc2)cc1F (relative stereo) [Example 39, 2,5-Difluoro-4-{[(1S*,2R*)-2-(pyridin-3-yl)cyclohexyl]oxy}-N-(pyrimidin-4-yl)benzenesulfonamide] | 1000 nM
Cn1cncc1[C@H]1CCCC[C@@H]1Oc1cc(F)c(S(=O)(=O)Nc2ccncn2)cc1F (relative stereo) [Example 49, 2,5-Difluoro-4-{[(1S*,2R*)-2-(1-methyl-1H-imidazol-5-yl)cyclohexyl]oxy}-N-(pyrimidin-4-yl)benzenesulfonamide] | 660 nM

The remaining lines, values ahead:

IC50 | Structure (SMILES)
330 nM | O=S(=O)(Nc1ccncn1)c1cc(F)c(O[C@H]2CCCC[C@@H]2c2ccnnc2)cc1F (relative stereo) [Example 53, 2,5-Difluoro-4-{[(1S*,2R*)-2-(pyridazin-4-yl)cyclohexyl]oxy}-N-(pyrimidin-4-yl)benzenesulfonamide]
2.6 nM | CCc1cc(S(=O)(=O)Nc2ccncn2)c(F)cc1O[C@H]1CCC[C@@H]1c1ccnn1C (relative stereo) [Example 61, 5-Ethyl-2-fluoro-4-{[(1S*,2R*)-2-(1-methyl-1H-pyrazol-5-yl)cyclopentyl]oxy}-N-(pyrimidin-4-yl)benzenesulfonamide]
330 nM | Cc1ncccc1[C@H]1CCCC[C@@H]1Oc1cc(F)c(S(=O)(=O)Nc2ccncn2)cc1F (relative stereo) [Example 70, 2,5-Difluoro-4-{[(1S*,2R*)-2-(2-methylpyridin-3-yl)cyclohexyl]oxy}-N-(pyrimidin-4-yl)benzenesulfonamide]
130 nM | CCc1cc(S(=O)(=O)Nc2ccncn2)ccc1O[C@H]1CCCC[C@@H]1c1c[nH]nc1N (relative stereo) [Example 89, 4-{[(1S*,2R*)-2-(3-Amino-1H-pyrazol-4-yl)cyclohexyl]oxy}-3-ethyl-N-(pyrimidin-4-yl)benzenesulfonamide]
1000 nM | Cn1nncc1[C@H]1CCCC[C@@H]1Oc1cc(F)c(S(=O)(=O)Nc2ccncn2)cc1F (relative stereo) [Example 92, 2,5-Difluoro-4-{[(1S*,2R*)-2-(1-methyl-1H-1,2,3-triazol-5-yl)cyclohexyl]oxy}-N-(pyrimidin-4-yl)benzenesulfonamide]
410 nM | Cn1nccc1[C@@H]1[C@@H](Oc2cc(F)c(S(=O)(=O)Nc3ccncn3)cc2F)CCC1(C)C (relative stereo) [Example 99, 4-{[(1S*,2R*)-3,3-Dimethyl-2-(1-methyl-1H-pyrazol-5-yl)cyclopentyl]oxy}-2,5-difluoro-N-(pyrimidin-4-yl)benzenesulfonamide]
380 nM | Cn1nccc1[C@@H]1[C@@H](Oc2cc(F)c(S(=O)(=O)Nc3ccncn3)cc2F)CCC[C@H]1OCc1ccccc1 (relative stereo) [Example 100, 4-{[(1S*,2S*,3R*)-3-(Benzyloxy)-2-(1-methyl-1H-pyrazol-5-yl)cyclohexyl]oxy}-2,5-difluoro-N-(pyrimidin-4-yl)benzenesulfonamide]
270 nM | Cn1nccc1[C@H]1C[C@@H](F)C[C@@H]1Oc1cc(F)c(S(=O)(=O)Nc2ccncn2)cc1F (relative stereo) [Example 106, 2,5-Difluoro-4-{[(1S*,2R*,4R*)-4-fluoro-2-(1-methyl-1H-pyrazol-5-yl)cyclopentyl]oxy}-N-(pyrimidin-4-yl)benzenesulfonamide]
310 nM | Cn1nccc1[C@H]1C[C@H](OCc2ccccc2)CC[C@@H]1Oc1cc(F)c(S(=O)(=O)Nc2ccncn2)cc1F (relative stereo) [Example 112, 4-{[(1S*,2R*,4R*)-4-(Benzyloxy)-2-(1-methyl-1H-pyrazol-5-yl)cyclohexyl]oxy}-2,5-difluoro-N-(pyrimidin-4-yl)benzenesulfonamide]
750 nM | Cn1nccc1[C@@H]1[C@@H](Oc2cc(F)c(S(=O)(=O)Nc3ccncn3)cc2F)CCCC1(F)F (relative stereo) [Example 117, 4-{[(1S*,2R*)-3,3-Difluoro-2-(1-methyl-1H-pyrazol-5-yl)cyclohexyl]oxy}-2,5-difluoro-N-(pyrimidin-4-yl)benzenesulfonamide]
930 nM | CO[C@H]1C[C@H](Oc2cc(F)c(S(=O)(=O)Nc3ccncn3)cc2F)[C@@H](c2ccnn2C)C1 (relative stereo) [Example 121, 2,5-Difluoro-4-{[(1S*,2R*,4R*)-4-methoxy-2-(1-methyl-1H-pyrazol-5-yl)cyclopentyl]oxy}-N-(pyrimidin-4-yl)benzenesulfonamide]
